Records with an inconclusive call do not appear.

This assay relates to BDF1 mice, s.c. Lewis lung carcinoma, T/C %. The assay can be described thus: NCI In Vivo Anticancer Drug Screen. Data for tumor model Lewis Lung Carcinoma (subcutaneous) in B6D2F1 (BDF1) mice. In outline:
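The value reflects a ratio in which the treated cohort's survival time or tumour size is compared against mice receiving only vehicle.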

[1] abbreviates: endpoint: mean tumor weight, dose: 2.5 mg/kg/injection, schedule: Q01DX011 (ip), vehicle: carboxymethylcellulose (CMC), higher = larger tumour.
[2] abbreviates: endpoint: mean tumor weight, dose: 50.0 mg/kg/injection, schedule: Q01DX011 (ip), vehicle: carboxymethylcellulose (CMC), higher = larger tumour.
The mark [3] stands for this setting: endpoint: mean tumor weight, dose: 100.0 mg/kg/injection, schedule: Q01DX011 (ip), vehicle: carboxymethylcellulose (CMC), higher = larger tumour.

Turning to `O=c1c(O)c(-c2ccc(O)c(O)c2)oc2cc(O)ccc12`, the T/C (endpoint: mean tumor weight, dose: 12.5 mg/kg/injection, schedule: Q01DX011 (ip), vehicle: saline, higher = larger tumour) is 99 % of control; the T/C (endpoint: mean tumor weight, dose: 25.0 mg/kg/injection, schedule: Q01DX011 (ip), vehicle: saline, higher = larger tumour) was 95 % of control; the T/C (endpoint: mean tumor weight, dose: 50.0 mg/kg/injection, schedule: Q01DX011 (ip), vehicle: saline, higher = larger tumour) is 91 % of control.

`COc1cc2ccc3c4cc5c(cc4c[n+](C)c3c2cc1OC)OCO5`: the T/C is 108 % of control (endpoint: median survival time, dose: 1.25 mg/kg/injection, schedule: Q01DX009 (ip), vehicle: Klucel (hydroxypropylcellulose) (HPC), higher = longer survival); 92 % of control (endpoint: median survival time, dose: 2.5 mg/kg/injection, schedule: Q01DX009 (ip), vehicle: Klucel (hydroxypropylcellulose) (HPC), higher = longer survival); 102 % of control (endpoint: median survival time, dose: 5.0 mg/kg/injection, schedule: Q01DX009 (ip), vehicle: Klucel (hydroxypropylcellulose) (HPC), higher = longer survival); 99 % of control (endpoint: median survival time, dose: 10.0 mg/kg/injection, schedule: Q01DX009 (ip), vehicle: Klucel (hydroxypropylcellulose) (HPC), higher = longer survival).

Take `COc1cc2c(cc1OC)-c1ccc3cc4c(cc3c1N(C)C2)OCO4`: the T/C is, setting by setting: (endpoint: median survival time, dose: 5.0 mg/kg/injection, schedule: Q01DX009 (ip), vehicle: water, higher = longer survival) 89 % of control; (endpoint: median survival time, dose: 20.0 mg/kg/injection, schedule: Q01DX009 (ip), vehicle: water, higher = longer survival) 105 % of control; (endpoint: median survival time, dose: 40.0 mg/kg/injection, schedule: Q01DX009 (ip), vehicle: water, higher = longer survival) 89 % of control; (endpoint: median survival time, dose: 80.0 mg/kg/injection, schedule: Q01DX009 (ip), vehicle: water, higher = longer survival) 98 % of control.

As for `CC(=O)OC1CC(OC2C(O)CC(OC3C(O)CC(OC4CCC5(C)C(CCC6C5CCC5(C)C(C7=CC(=O)OC7)CCC65O)C4)OC3C)OC2C)OC(C)C1OC1OC(CO)C(O)C(O)C1O` (stereo unspecified), the T/C by setting is: (endpoint: mean tumor weight, dose: 1.2 mg/kg/injection, schedule: Q01DX011 (ip), vehicle: carboxymethylcellulose (CMC), higher = larger tumour) 55 % of control; under setting [1], 60 % of control; (endpoint: mean tumor weight, dose: 5.0 mg/kg/injection, schedule: Q01DX011 (ip), vehicle: carboxymethylcellulose (CMC), higher = larger tumour) 32 % of control.

With `O=C1C2C3CCC(O3)C2C(=O)N1c1nccs1` (stereo unspecified), the T/C (endpoint: mean tumor weight, dose: 62.5 mg/kg/injection, schedule: Q01DX011 (ip), vehicle: carboxymethylcellulose (CMC), higher = larger tumour) is 75 % of control and the T/C (endpoint: mean tumor weight, dose: 125.0 mg/kg/injection, schedule: Q01DX011 (ip), vehicle: carboxymethylcellulose (CMC), higher = larger tumour) was 71 % of control.

As for `CC[CH2][Pb]([Cl])([CH2]CC)[CH2]CC`, the T/C is 101 % of control (endpoint: median survival time, dose: 0.01 mg/kg/injection, schedule: Q01DX009 (ip), vehicle: DMSO, higher = longer survival); 93 % of control (endpoint: median survival time, dose: 0.02 mg/kg/injection, schedule: Q01DX009 (ip), vehicle: DMSO, higher = longer survival); 98 % of control (endpoint: median survival time, dose: 0.04 mg/kg/injection, schedule: Q01DX009 (ip), vehicle: DMSO, higher = longer survival); 94 % of control (endpoint: median survival time, dose: 0.04 mg/kg/injection, schedule: Q01DX009 (ip), vehicle: Klucel (hydroxypropylcellulose) (HPC), higher = longer survival); 107 % of control (endpoint: median survival time, dose: 0.08 mg/kg/injection, schedule: Q01DX009 (ip), vehicle: DMSO, higher = longer survival); 106 % of control (endpoint: median survival time, dose: 0.09 mg/kg/injection, schedule: Q01DX009 (ip), vehicle: Klucel (hydroxypropylcellulose) (HPC), higher = longer survival). Further, the T/C is, setting by setting: (endpoint: median survival time, dose: 0.18 mg/kg/injection, schedule: Q01DX009 (ip), vehicle: Klucel (hydroxypropylcellulose) (HPC), higher = longer survival) 100 % of control; (endpoint: median survival time, dose: 0.37 mg/kg/injection, schedule: Q01DX009 (ip), vehicle: DMSO, higher = longer survival) 108 % of control; (endpoint: median survival time, dose: 0.37 mg/kg/injection, schedule: Q01DX009 (ip), vehicle: Klucel (hydroxypropylcellulose) (HPC), higher = longer survival) 104 % of control.

`NC(=O)c1ccc(NC(=O)CCC(=O)Nc2ccc(C(N)=O)cn2)nc1`: the T/C was 54 % of control (endpoint: mean tumor weight, dose: 1.25 mg/kg/injection, schedule: Q01DX011 (ip), vehicle: carboxymethylcellulose (CMC), higher = larger tumour) and 24 % of control under setting [1].

For the molecule `CNC1C(O)C(NC)C2OC3(O)C(=O)CC(C)OC3OC2C1O` (stereo unspecified), the T/C by setting is: (endpoint: median survival time, dose: 25.0 mg/kg/injection, schedule: Q01DX009 (ip), vehicle: saline, higher = longer survival) 111 % of control; (endpoint: median survival time, dose: 50.0 mg/kg/injection, schedule: Q01DX009 (ip), vehicle: saline, higher = longer survival) 96 % of control; (endpoint: median survival time, dose: 100.0 mg/kg/injection, schedule: Q01DX009 (ip), vehicle: saline, higher = longer survival) 110 % of control.

Take `CCCn1cnc2c(SCc3ccccc3Cl)nc(N)nc21`: the T/C was 66 % of control (endpoint: mean tumor weight, dose: 25.0 mg/kg/injection, schedule: Q01DX011 (ip), vehicle: other, higher = larger tumour); 102 % of control (endpoint: mean tumor weight, dose: 50.0 mg/kg/injection, schedule: Q01DX011 (ip), vehicle: other, higher = larger tumour); 89 % of control (endpoint: mean tumor weight, dose: 100.0 mg/kg/injection, schedule: Q01DX011 (ip), vehicle: other, higher = larger tumour); 65 % of control (endpoint: mean tumor weight, dose: 200.0 mg/kg/injection, schedule: Q01DX011 (ip), vehicle: other, higher = larger tumour).

In the case of `CC/C(C)=C1\OC(=O)C(C)C(O)C(Cc2cccnc2)NC(=O)C(NC(=O)c2ncccc2O)C(C)OC1=O` (stereo unspecified), the T/C (endpoint: median survival time, dose: 6.25 mg/kg/injection, schedule: Q01DX009 (ip), vehicle: saline with Tween-80, higher = longer survival) was 92 % of control and the T/C (endpoint: median survival time, dose: 12.5 mg/kg/injection, schedule: Q01DX009 (ip), vehicle: saline with Tween-80, higher = longer survival) was 98 % of control.

For the molecule `COc1cc(C[C@H]2c3cc(OC)c(OC)cc3CCN2C)c(Oc2cc3c(cc2OC)-c2c(OC)c(OC)cc4c2[C@H](C3)N(C)CC4)cc1OC`, the T/C is, setting by setting: under setting [2], 49 % of control; under setting [3], 26 % of control.

Regarding `O=C(CCBr)N1CCN(C(=O)CCBr)CC1`, the T/C by setting is: (endpoint: median survival time, dose: 2.5 mg/kg/injection, schedule: Q01DX009 (ip), vehicle: saline with Tween-80, higher = longer survival) 105 % of control; (endpoint: median survival time, dose: 5.0 mg/kg/injection, schedule: Q01DX009 (ip), vehicle: saline with Tween-80, higher = longer survival) 105 % of control; (endpoint: median survival time, dose: 10.0 mg/kg/injection, schedule: Q01DX009 (ip), vehicle: saline with Tween-80, higher = longer survival) 109 % of control; (endpoint: median survival time, dose: 20.0 mg/kg/injection, schedule: Q01DX009 (ip), vehicle: saline with Tween-80, higher = longer survival) 109 % of control; (endpoint: median survival time, dose: 40.0 mg/kg/injection, schedule: Q01DX009 (ip), vehicle: saline with Tween-80, higher = longer survival) 106 % of control; (endpoint: median survival time, dose: 80.0 mg/kg/injection, schedule: Q01DX009 (ip), vehicle: saline with Tween-80, higher = longer survival) 102 % of control.

As for `CO[C@H]1/C=C/O[C@@]2(C)Oc3c(C)c(O)c4c(O)c(c(/C=N/N5C(C)CN(Cc6ccccc6)CC5C)c(O)c4c3C2=O)NC(=O)/C(C)=C\C=C\[C@H](C)[C@H](O)[C@@H](C)[C@@H](O)[C@@H](C)[C@H](OC(C)=O)[C@@H]1C` (stereo partly specified), the T/C reads like this: (endpoint: mean tumor weight, dose: 50.0 mg/kg/injection, schedule: Q01DX009 (ip), vehicle: saline with Tween-80, higher = larger tumour) 112 % of control; (endpoint: mean tumor weight, dose: 100.0 mg/kg/injection, schedule: Q01DX009 (ip), vehicle: saline with Tween-80, higher = larger tumour) 93 % of control; (endpoint: mean tumor weight, dose: 200.0 mg/kg/injection, schedule: Q01DX009 (ip), vehicle: saline with Tween-80, higher = larger tumour) 65 % of control; (endpoint: mean tumor weight, dose: 400.0 mg/kg/injection, schedule: Q01DX009 (ip), vehicle: saline with Tween-80, higher = larger tumour) 47 % of control; (endpoint: median survival time, dose: 1.6 mg/kg/injection, schedule: Q02DX Z (oral), vehicle: Klucel (hydroxypropylcellulose) (HPC), higher = longer survival) 95 % of control; (endpoint: median survival time, dose: 3.12 mg/kg/injection, schedule: Q02DX Z (oral), vehicle: Klucel (hydroxypropylcellulose) (HPC), higher = longer survival) 91 % of control. Moreover, the T/C is, setting by setting: (endpoint: median survival time, dose: 12.5 mg/kg/injection, schedule: Q02DX Z (oral), vehicle: Klucel (hydroxypropylcellulose) (HPC), higher = longer survival) 87 % of control; (endpoint: median survival time, dose: 25.0 mg/kg/injection, schedule: Q02DX Z (oral), vehicle: Klucel (hydroxypropylcellulose) (HPC), higher = longer survival) 91 % of control; (endpoint: median survival time, dose: 50.0 mg/kg/injection, schedule: Q02DX Z (oral), vehicle: Klucel (hydroxypropylcellulose) (HPC), higher = longer survival) 95 % of control; (endpoint: median survival time, dose: 100.0 mg/kg/injection, schedule: Q01DX009 (ip), vehicle: saline with Tween-80, higher = longer survival) 112 % of control; (endpoint: median survival time, dose: 100.0 mg/kg/injection, schedule: Q02DX Z (oral), vehicle: Klucel (hydroxypropylcellulose) (HPC), higher = longer survival) 94 % of control; (endpoint: median survival time, dose: 200.0 mg/kg/injection, schedule: Q01DX009 (ip), vehicle: saline with Tween-80, higher = longer survival) 100 % of control. The T/C (endpoint: median survival time, dose: 200.0 mg/kg/injection, schedule: Q02DX Z (oral), vehicle: Klucel (hydroxypropylcellulose) (HPC), higher = longer survival) was 102 % of control.

Consider `CC1CCOS(=O)O1` (stereo unspecified), for which the T/C was 66 % of control (endpoint: mean tumor weight, dose: 10.0 mg/kg/injection, schedule: Q01DX011 (ip), vehicle: saline, higher = larger tumour); 63 % of control (endpoint: mean tumor weight, dose: 20.0 mg/kg/injection, schedule: Q01DX011 (ip), vehicle: saline, higher = larger tumour); 65 % of control (endpoint: mean tumor weight, dose: 40.0 mg/kg/injection, schedule: Q01DX011 (ip), vehicle: saline, higher = larger tumour).

On to `OCC1=CCN2CC[C@@H](O)[C@@H]12`, for which the T/C reads like this: (endpoint: mean tumor weight, dose: 25.0 mg/kg/injection, schedule: Q01DX011 (ip), vehicle: carboxymethylcellulose (CMC), higher = larger tumour) 122 % of control; under setting [2], 117 % of control; under setting [3], 111 % of control; (endpoint: mean tumor weight, dose: 200.0 mg/kg/injection, schedule: Q01DX011 (ip), vehicle: carboxymethylcellulose (CMC), higher = larger tumour) 106 % of control.

On to `N#Cc1ccc(S(N)(=O)=O)cc1`, for which the T/C (endpoint: mean tumor weight, dose: 6.2 mg/kg/injection, schedule: Q01DX011 (ip), vehicle: carboxymethylcellulose (CMC), higher = larger tumour) was 52 % of control and the T/C (endpoint: mean tumor weight, dose: 12.5 mg/kg/injection, schedule: Q01DX011 (ip), vehicle: carboxymethylcellulose (CMC), higher = larger tumour) was 66 % of control.

The values are drawn from PubChem BioAssay AID270 (DTP/NCI, 2004).
